Like-named read-outs stand apart in the source and are kept apart here.
Experiments:
[1] = system: S. typhimurium strain TA98; format: cell-based, Salmonella typhimurium
[2] = system: S. typhimurium strain TA100; format: cell-based, Salmonella typhimurium
[3] = cited from earlier work
[4] = system: supercoiled pUC19 plasmid DNA; assay: Protection of plasmid DNA against ROS-induced nicking; format: biochemical; conditions: PrC-210 0–70 mM added before hydroxyl radical generating system
[5] = Distribution of [14C] PrC-210 topically applied to rat skin; conditions: for Recovery (carcass) / Recovery (skin) = skin (dose site) + skin wash / Recovery (total): 48 h
[6] = system: diploid human fibroblasts; assay: Human cell growth inhibition; format: cell-based; conditions: PrC-210 in medium for 30 h before cell counting
rat = rat model, 0.5× mouse MTD; cited from earlier work
[7] = system: diploid human fibroblasts; assay: Flow cytometry cell-cycle analysis; format: cell-based
p21 = assay: Western blot for p21 expression in nuclear extracts; format: cell-based, human; conditions: 4.1 mM PrC-210 for 30 h vs untreated cells
ICR mice [8] = assay: Mouse radiation survival assay; format: in vivo
[9] = system: Sprague-Dawley rat dorsal skin; assay: Rat dorsal skin radiodermatitis assay; format: in vivo
ICR mice [10] = assay: Mouse aminothiol toxicity assay; format: in vivo
[11] = pH and disulfide formation of aqueous PrC-210 solutions; format: physicochemical; conditions: for PrC-210 disulfide in solution: aqueous
CHO K1 cells = conditions: reported in one setting; cited from earlier work
ICR mice [12] = conditions: known radioprotectors, value quoted for comparison, no reference given; cited from earlier work
ferret = ferret model, 0.5× mouse MTD; cited from earlier work
humans = conditions: cited from earlier work
[13] = 87 μM (so in the source), positive control
[14] = Group 2: 1850 mM dermal, without norepinephrine
[15] = Group 3: 1850 mM dermal, with 300 mM norepinephrine

Nc1cccc2cc3ccccc3cc12 [Aminoanthracene, reference compound]
Colonies/plate (mean ± SD) Strain TA98 +S9 [1, 13]: 177 Colonies/plate
Colonies/plate (mean ± SD) Strain TA98 −S9 [1, 13]: >1800 Colonies/plate
Colonies/plate (mean ± SD) Strain TA100 +S9 [2, 13]: 570 ± 90 Colonies/plate

CNCC(CS)CNC [PrC-210]
Colonies/plate (mean ± SD) Strain TA98 −S9 ([1]; 30 μM): 43 ± 2 Colonies/plate
Colonies/plate (mean ± SD) Strain TA98 +S9 ([1]; 100 μM): 64 ± 4 Colonies/plate
Colonies/plate (mean ± SD) Strain TA98 −S9 ([1]; 100 μM): 51 ± 6 Colonies/plate
Colonies/plate (mean ± SD) Strain TA98 +S9 ([1]; 400 μM): 55 ± 3 Colonies/plate
Colonies/plate (mean ± SD) Strain TA98 −S9 ([1]; 400 μM): 58 ± 14 Colonies/plate
Colonies/plate (mean ± SD) Strain TA98 +S9 ([1]; 1000 μM): 54 ± 6 Colonies/plate
Colonies/plate (mean ± SD) Strain TA98 −S9 ([1]; 1000 μM): 53 ± 3 Colonies/plate
Colonies/plate (mean ± SD) Strain TA98 +S9 ([1]; 4100 μM): 55 Colonies/plate
Colonies/plate (mean ± SD) Strain TA98 −S9 ([1]; 4100 μM): 55 ± 5 Colonies/plate
Colonies/plate (mean ± SD) Strain TA98 +S9 ([1]; 7000 μM): 65 ± 9 Colonies/plate
Colonies/plate (mean ± SD) Strain TA98 −S9 ([1]; 7000 μM): 51 ± 5 Colonies/plate
mutagenicity: frameshift mutations (strain TA98) ([1]; concentrations up to 7 mM): neither frameshift mutations
oral activity [3]: active when taken orally
protection of supercoiled plasmid DNA against ROS-induced nicking [4]: complete protection
systemic dose after topical application ([5]; 300 g rats, 1.1 mg absorbed, over 48 h (lowest)): 3.7 μg/g BW
estimated mass that crossed the skin barrier and entered systemic circulation ([5]; Group 1, over 48 h (16.28 mg × 6.7%)): 1.1 mg
Cmax (radioactivity in plasma) ([5]; Group 1: 370 mM dermal, 16.28 mg applied): 257 ng-eq/g
Recovery (carcass) ([5]; Group 1: 370 mM dermal): 0.52%
Recovery (skin) = skin (dose site) + skin wash ([5]; Group 1: 370 mM dermal): 41.54%
Recovery (total) ([5]; Group 1: 370 mM dermal): 49.4%
Recovery (carcass) [5, 14]: 1.84%
Recovery (skin) = skin (dose site) + skin wash [5, 14]: 47.16%
Recovery (total) [5, 14]: 66.0%
estimated mass that crossed the skin barrier and entered systemic circulation ([5]; Group 3, over 48 h): 6.8 mg
Cmax (radioactivity in plasma) ([5]; Group 3: 1850 mM dermal, 81.40 mg applied, with 300 mM norepinephrine): 726 ng-eq/g
Recovery (carcass) [5, 15]: 1.53%
Recovery (skin) = skin (dose site) + skin wash [5, 15]: 60.46%
Recovery (total) [5, 15]: 70.0%
share of absorbed radioactivity eliminated by the urine ([5]; after dermal dose): ≥ 90%
transfer of topically applied PrC-210 into systemic circulation ([5]; over 48 h following topical administration, across groups): 6–15%
14C cpm in blood remaining soluble after TCA precipitation ([5]; rat blood samples, preliminary analysis (not shown)): less than 10%
IC70 dose, inhibition of cell growth [6]: 4.1 mM
hypotension response (rat): nor hypotension response
S-phase fraction of cells after washout ([7]; 4.1 mM PrC-210 30 h, then washout and fresh medium 48 h): 40%
S-phase fraction of cells ([7]; 4.1 mM PrC-210 for 30 h, control 53%): 8%
type of cell cycle block ([7]; PrC-210-treated normal human fibroblasts): G1/S cell cycle block
p21 protein level in nuclear extracts (p21): significantly elevated
dose reduction factor (DRF) (ICR mice [8]; i.p. 211 μg/g BW 30 min before increasing radiation doses, survival to day 35): 1.6
survival (ICR mice [8]; i.p. 211 μg/g BW (0.5× MTD best fit) 30 min before 8.63 Gy whole-body radiation): 98%
survival (ICR mice [8]; i.p. 252 μg/g BW 30 min before 8.75 Gy (otherwise 100% lethal)): 100%
survival (ICR mice [8]; i.p. 252 μg/g BW (0.5× MTD probit) 30 min before 8.63 Gy whole-body radiation): 100%
protection against radiation dermatitis ([9]; 1 to 2 topical applications only): much less protection
prevention of radiation dermatitis ([9]; four topical applications over 2 h before irradiation (Fig. 5F)): 98%
prevention of radiation dermatitis, systemic administration ([9]; i.p. 200 μg/g BW 30 min before 17.3 Gy): complete prevention
radiodermatitis prevention, structure-activity study ([9]; topical 370 mM, thiol plus charged alkyl-amine backbone (Fig. 6)): 100%
protection against radiation dermatitis, aqueous vehicle ([9]; topical 1500 mM in vehicles containing 75% water): still conferred protection
prevention of Grade 2–3 radiation dermatitis by increasing topical doses ([9]; topical application to rat skin before irradiation vs vehicle controls): completely prevented
prevention of Grade 3 radiation dermatitis, topical ([9]; topical, at or above 370 mM, 17.3 Gy, scored 13 days after irradiation): completely prevented
IC100 dose for radiation dermatitis ([9]; topical, vehicle 0:95:5 (ethanol:propylene glycol:water)): 1500 mM
IC100 dose for radiation dermatitis ([9]; topical, vehicle 50:30:20 (ethanol:propylene glycol:water)): 370 mM
i.p. MTD (= i.p. LD10 dose) (ICR mice [10]; extrapolated from the best fit curve (Fig. 8A)): 422 μg/g BW
LD10 dose (ICR mice [10]; i.p., probit analysis of percentage survival data): 504 μg/g BW
toxic response (ICR mice [10]; single i.p. 500 μg/g BW): either a transient response in which the mice are sleepy but then rebound over several hours and survive, or they die within 1–2 h
lethality (ICR mice [10]; single i.p. 700 μg/g BW, severe muscle spasm then death within min): 100%
Colonies/plate (mean ± SD) Strain TA100 +S9 ([2]; 30 μM): 119 Colonies/plate
Colonies/plate (mean ± SD) Strain TA100 −S9 ([2]; 30 μM): 121 ± 8 Colonies/plate
Colonies/plate (mean ± SD) Strain TA100 +S9 ([2]; 100 μM): 127 ± 8 Colonies/plate
Colonies/plate (mean ± SD) Strain TA100 −S9 ([2]; 100 μM): 116 ± 22 Colonies/plate
Colonies/plate (mean ± SD) Strain TA100 +S9 ([2]; 400 μM): 144 ± 14 Colonies/plate
Colonies/plate (mean ± SD) Strain TA100 −S9 ([2]; 400 μM): 128 Colonies/plate
Colonies/plate (mean ± SD) Strain TA100 +S9 ([2]; 1000 μM): 148 ± 5 Colonies/plate
Colonies/plate (mean ± SD) Strain TA100 −S9 ([2]; 1000 μM): 101 ± 19 Colonies/plate
Colonies/plate (mean ± SD) Strain TA100 +S9 ([2]; 4100 μM): 115 ± 33 Colonies/plate
Colonies/plate (mean ± SD) Strain TA100 −S9 ([2]; 4100 μM): 134 ± 20 Colonies/plate
Colonies/plate (mean ± SD) Strain TA100 +S9 ([2]; 7000 μM): 149 ± 18 Colonies/plate
Colonies/plate (mean ± SD) Strain TA100 −S9 ([2]; 7000 μM): 128 ± 11 Colonies/plate
mutagenicity: point mutations (strain TA100) ([2]; concentrations up to 7 mM): nor point mutations
pH on dissolution in water ([11]; HCl salt dissolved in water): ~ 3.0
PrC-210 disulfide in solution ([11]; pH 5.5, 1 week at room temperature in the dark): < 1%
PrC-210 disulfide in solution ([11]; pH 8.0, 1 week at room temperature in the dark): > 98%

NCCCNCCS [WR-1065, 2-[(aminopropyl)amino]ethanethiol]
type of cell cycle block (CHO K1 cells): G2/M cell cycle block

NCCCNCCSP(=O)(O)O [amifostine]
dose reduction factor (DRF) (ICR mice [12]): 1.6
retch/vomit response (ferret): elicits both responses
hypotension response (rat): elicits both responses
systemic toxicities (humans; human amifostine use): significant systemic toxicities (nausea/emesis, hypotension/fainting)
efficacy when applied topically to skin or mucosa (humans; humans): has not been effective
